Measurements published in article PMC8430629, “Anti-Cancer Effects of Cyclic Peptide ALOS4 in a Human Melanoma Mouse Model” (International Journal of Molecular Sciences, 2021).
Where a SMILES comes first, the peptide text is derived from it.

Legend:
[1] = test system: ICR mice; test: Open field test; format: in vivo
Protocol: To evaluate the effect of ALOS4 on mouse locomotor activity, we used the open field (OF) behavioral test. This assay consists of an arena (30 × 40 cm) with no grid markings and uses an infrared imaging system. […] Each mouse was placed individually in the center of the arena and evaluated for 6 min. Arena center dwell time versus arena border dwell time, as well as total traveled distance, were recorded.

[2] = test system: ICR mice; test: Complete blood count after single IV dose; format: in vivo; details: for RBC / HGB / MCH / MCHC / Hematocrit / MCV / Platelets / WBC: mean, n = 5; for RBC: normal range 7.31–10.03; for HGB: normal range 13.1–16.2; for MCH: normal range 15–18; for MCHC: normal range 33.7–36.4; for Hematocrit: normal range 36.8–48.7; for MCV: normal range 46.0–50.9; for Platelets: normal range 674–1675; for WBC: blood 24 h post-injection, normal range 6.5–24.5
Protocol: (§1) ICR mice were treated with single IV injections of ALOS4 (30, 90, or 180 mg/kg) and blood samples were collected at 24 h post-injection to EDTA and serum tubes. Complete blood cell count (CBC) and blood chemistry analyses were performed for saline and ALOS4 treatment groups at a certified animal laboratory (Herzliya Medical Center, Herzliya, Israel).

[3] = Formulation stability, saline vs saline with 0.1% Tween-80; format: physicochemical; details: 0.5-5000 pmol/µL, 60 min, room temperature (25 °C), polypropylene tubes, LC-MS, n = 3
Protocol: (§2) Adhesiveness to inert materials was measured for ALOS4 0.9% NaCl(aq) solution in concentrations of 1, 3 10, 30, or 100 µM and incubated in standard laboratory polypropylene microtubes for 60 min at room temperature. Solutions were transferred to either polypropylene LC vials or borosilicate glass LC vials. Optimal formulation stability of ALOS4 was analyzed in either saline solution (0.9% NaCl) or saline solution containing 0.1% tween 80 (polysorbate; Sigma-Aldrich, Cat#P1754, Darmstadt, Germany) at concentrations of 0.5, 5, 50, 500, or 5000 pmol/µL. Solutions were incubated in standard polypropylene tubes for 60 min at room temperature. Acid/base stability was measured for ALOS4 formulated in saline at a concentration of 10 µM and incubated for 1 or 24 h at 3.4, 4.4, 5.4, 6.4, 7.4, or 9.4 pH at temperatures of 4, 25, or 37 °C. Recovery of ALOS4 following these materials assays was assessed by LC-MS.

[4] = Acid/base and temperature stability; format: physicochemical; details: 10 µM in saline, pH 3.4, 4.4, 5.4, 6.4, 7.4, 9.4; 4, 25, 37 °C; 1 or 24 h; polypropylene tubes, LC-MS, n = 3
Protocol: as §2

[5] = test system: ICR mice; test: Repeated IV dose toxicity assessment in cancer-free ICR mice
Protocol: Acute single or repeated doses of ALOS4 at 10, 30, 90, 180, or 360 mg/kg were administered intravenously to uninoculated (nominally cancer-free) ICR mice. Body weight, rectal temperature, and survival were evaluated for 14 days following injections. Mice were also evaluated for locomotory and anxiety-like behaviors (open-field and EPM) on treatment day 14.

[6] = test system: ICR mice; test: Plasma biochemistry after single IV dose; format: in vivo; details: 24 h, mean, n = 5; for Total Bilirubin: normal range 0.16–0.32; for Creatinine: normal range 0.2–0.4; for Globulin: normal range 1.4–2.0; for Alb: normal range 3.3–4.0; for TP: normal range 4.7–5.8; for Phosphorus: normal range 6.4–11.3; for Calcium: normal range 9.8–10.8; for Urea: normal range 39–62; for Cholesterol: normal range 56–133; for Glucose: normal range 169–282
Protocol: as §1

**Q.** What does the source list for `CC(C)C[C@@H]1NC(=O)[C@H](CO)NC(=O)CNC(=O)[C@H](C)NC(=O)[C@H](CO)NC(=O)[C@H](CO)NC(=O)[C@@H](N)CSSC[C@@H](C(=O)O)NC(=O)[C@H](Cc2ccccc2)NC1=O` [ALOS4, H-cycl(Cys-Ser-Ser-Ala-Gly-Ser-Leu-Phe-Cys)-OH] (HELM PEPTIDE1{C.S.S.A.G.S.L.F.C}$PEPTIDE1,PEPTIDE1,1:R3-9:R3$$$V2.0)?
**A.** total traveled distance, open field ([1]; IV acute single dose 180 mg/kg, n = 5, Bonferroni p = 0.0329): only an exception for total traveled distance; locomotor activity, open field ([1]; IV acute single dose 30, 90, 180 mg/kg, n = 5, central arena dwell time): did not affect locomotor activity in general; decrease in WBC count ([2]; ICR mice, single IV 180 mg/kg, 24 h): 40%; RBC ([2]; single IV 30 mg/kg, 24 h): 9.16 ± 0.3 10^6/µL; HGB ([2]; single IV 30 mg/kg, 24 h): 14.3 ± 0.6 g/dL; MCH ([2]; single IV 30 mg/kg, 24 h): 15.6 ± 0.2 pg; MCHC ([2]; single IV 30 mg/kg, 24 h): 32.54 ± 0.23 g/dL; Hematocrit ([2]; single IV 30 mg/kg, 24 h): 43.96 ± 1.9%; MCV ([2]; single IV 30 mg/kg, 24 h): 47.96 ± 0.6 fL; Platelets ([2]; single IV 30 mg/kg, 24 h): 582.4 ± 132 10^3/µL; WBC ([2]; single IV 30 mg/kg): 4.51 ± 1.3 10^3/µL; RBC ([2]; single IV 90 mg/kg, 24 h): 9.78 ± 0.3 10^6/µL; HGB ([2]; single IV 90 mg/kg, 24 h): 15.42 ± 0.5 g/dL; MCH ([2]; single IV 90 mg/kg, 24 h): 15.76 ± 0.15 pg; MCHC ([2]; single IV 90 mg/kg, 24 h): 32.2 ± 0.4 g/dL; Hematocrit ([2]; single IV 90 mg/kg, 24 h): 47.88 ± 1.1%; MCV ([2]; single IV 90 mg/kg, 24 h): 48.96 ± 0.24 fL; Platelets ([2]; single IV 90 mg/kg, 24 h): 770.2 ± 189 10^3/µL; WBC ([2]; single IV 90 mg/kg): 6.07 ± 1.2 10^3/µL; RBC ([2]; single IV 180 mg/kg, 24 h): 8.02 ± 0.6 10^6/µL; HGB ([2]; single IV 180 mg/kg, 24 h): 13.2 ± 1.04 g/dL; MCH ([2]; single IV 180 mg/kg, 24 h): 16.42 ± 0.2 pg; MCHC ([2]; single IV 180 mg/kg, 24 h): 32.88 ± 0.4 g/dL; Hematocrit ([2]; single IV 180 mg/kg, 24 h): 40.12 ± 3.15%; MCV ([2]; single IV 180 mg/kg, 24 h): 49.96 ± 0.32 fL; Platelets ([2]; single IV 180 mg/kg, 24 h): 661.8 ± 160.5 10^3/µL; WBC ([2]; single IV 180 mg/kg): 3.2 ± 0.06 10^3/µL; reduction of peptide stability in saline containing 0.1% Tween-80 vs 0.9% NaCl only [3]: 1.2 fold; stability (recoverability) [4]: 90–100%; weight-gain ([5]; IV every other day over 21 days (ten doses), 10, 30, 90, 180, 360 mg/kg, n = 5, vs control): no alterations in weight-gain; body temperature ([5]; IV every other day over 21 days, 10-360 mg/kg, rectal, 30 min after injection, n = 5): no alterations; necropsy assessment for organ damage ([5]; histology of liver, spleen, kidney, lungs, brain, repeated IV 10-360 mg/kg): did not reveal any overt signs of tissue damage or inflammation; 21-day survival ([5]; maximum tested repeated IV dose 360 mg/kg, n = 5): 100%; clinical signs ([5]; repeated IV 10-360 mg/kg): No adverse overt clinical signs were observed; Total Bilirubin ([6]; single IV 30 mg/kg): 0.11 ± 0.02 mg/dL; Creatinine ([6]; single IV 30 mg/kg): 0.26 ± 0.014 mg/dL; Globulin ([6]; single IV 30 mg/kg): 1.87 ± 0.07 g/dL; Alb ([6]; single IV 30 mg/kg): 4.3 ± 0.14 g/dL; TP ([6]; single IV 30 mg/kg): 6.17 ± 0.18 g/dL; Phosphorus ([6]; single IV 30 mg/kg): 8.6 ± 0.56 mg/dL; Calcium ([6]; single IV 30 mg/kg): 10.29 ± 0.11 mg/dL; Urea ([6]; single IV 30 mg/kg): 46.08 ± 1.7 mg/dL; Cholesterol ([6]; single IV 30 mg/kg): 108.2 ± 9.5 mg/dL; Glucose ([6]; single IV 30 mg/kg): 169.8 ± 6.9 mg/dL; Total Bilirubin ([6]; single IV 90 mg/kg): 0.14 ± 0.02 mg/dL; Creatinine ([6]; single IV 90 mg/kg): 0.25 ± 0.06 mg/dL; Globulin ([6]; single IV 90 mg/kg): 2.02 ± 0.07 g/dL; Alb ([6]; single IV 90 mg/kg): 4.3 ± 0.06 g/dL; TP ([6]; single IV 90 mg/kg): 6.32 ± 0.13 g/dL; Phosphorus ([6]; single IV 90 mg/kg): 9.53 ± 0.4 mg/dL; Calcium ([6]; single IV 90 mg/kg): 10.38 ± 0.29 mg/dL; Urea ([6]; single IV 90 mg/kg): 48.23 ± 3.2 mg/dL; Cholesterol ([6]; single IV 90 mg/kg): 142.25 ± 13.7 mg/dL; Glucose ([6]; single IV 90 mg/kg): 170.75 ± 10.7 mg/dL; Total Bilirubin ([6]; single IV 180 mg/kg): 0.11 ± 0.03 mg/dL; Creatinine ([6]; single IV 180 mg/kg): 0.27 ± 0.02 mg/dL; Globulin ([6]; single IV 180 mg/kg): 1.59 ± 0.4 g/dL; Alb ([6]; single IV 180 mg/kg): 4.36 ± 0.024 g/dL; TP ([6]; single IV 180 mg/kg): 6.28 ± 0.09 g/dL; Phosphorus ([6]; single IV 180 mg/kg): 8.44 ± 0.75 mg/dL; Calcium ([6]; single IV 180 mg/kg): 10.42 ± 0.1 mg/dL; Urea ([6]; single IV 180 mg/kg): 46.02 ± 3.9 mg/dL; Cholesterol ([6]; single IV 180 mg/kg): 141.8 ± 9.1 mg/dL; Glucose ([6]; single IV 180 mg/kg): 183.2 ± 14.3 mg/dL
